Measurements from publication PMC8653295 (Chemistry (Weinheim an Der Bergstrasse, Germany), 2021).
Several values for one entry are separate records, joined by “and”; a condition that tells them apart may be missing. Equal entries are not always repeated.

Key:
[1] = biological target: interaction of the RBD of the SARS‐CoV‐2 S protein with the ACE2 receptor (Severe acute respiratory syndrome coronavirus 2, UniProt P0DTC2); type: binding; conditions: for inhibition of the S/ACE2 interaction: 20 µM
SARS‐CoV PL^pro = SARS‐CoV PL^pro (Severe acute respiratory syndrome coronavirus, UniProt P0C6X7); assay: biochemical; type: biochemical; conditions: for inhibition of SARS-CoV PLpro: 10 µM
SARS‐CoV‐2 PL^pro = SARS‐CoV‐2 PL^pro (Severe acute respiratory syndrome coronavirus 2, UniProt P0DTD1); assay: biochemical; type: biochemical; conditions: for inhibition of SARS-CoV-2 PLpro: 1 µM

Row | Molecule | inhibition of the S/ACE2 interaction [1] [%] | inhibition of SARS-CoV PLpro (SARS‐CoV PL^pro) | inhibition of SARS-CoV-2 PLpro (SARS‐CoV‐2 PL^pro) | further results
1 | CCn1[c]([Au-][S]C(=S)N2CCC(C(=O)NC3C(O)OC(CO)C(O)C3O)CC2)[n+](CC)c2ccccc21 (mixture of isomers) [Au‐35] | 0 | 85% | 58% | IC50 SARS‐CoV PL^pro (SARS‐CoV PL^pro): Submicromolar; IC50 (SARS‐CoV‐2 PL^pro): 0.41 ± 0.14 µM; IC50 SARS‐CoV‐2 PL^pro (SARS‐CoV‐2 PL^pro): Submicromolar
2 | O=C(NC1C(O)OC(CO)C(O)C1O)C1CCN(C(=S)[S][Au][PH](c2ccccc2)(c2ccccc2)c2ccccc2)CC1 (mixture of isomers) [Au‐36] | 0 | 79% | 74% | IC50 (SARS‐CoV PL^pro): 0.33 ± 0.16 µM; IC50 SARS‐CoV PL^pro (SARS‐CoV PL^pro): Submicromolar; IC50 (SARS‐CoV‐2 PL^pro): 0.14 ± 0.09 µM; IC50 SARS‐CoV‐2 PL^pro (SARS‐CoV‐2 PL^pro): Submicromolar
3 | O=[N+]([O-])[O-].[Ag+] [Ag‐1, silver nitrate, reference compound] | 6 | 100% | 72% | activity against SARS‐CoV PL^pro (in words) (SARS‐CoV PL^pro): completely inhibited; IC50 (SARS‐CoV‐2 PL^pro): 0.45 ± 0.21 µM
4 | CC(=O)OC[C@H]1O[C@@H]([S-])[C@H](OC(C)=O)[C@@H](OC(C)=O)[C@@H]1OC(C)=O.CCP(CC)CC.[Au+] [Au‐1, auranofin, reference compound] | 20 | 58% and > 50% | 51% and > 50% | –
5 | CCP(CC)CC.[Au+].[Cl-] [Au‐3, (triethylphosphine)AuCl, reference compound] | 24 | 95% and > 50% | 55% and > 50% | IC50 (SARS‐CoV PL^pro): 1.2 ± 0.44 µM; IC50 (SARS‐CoV‐2 PL^pro): 1.1 ± 0.12 µM
6 | [Cl][Au].c1ccc(P(c2ccccc2)c2ccccc2)cc1 [Au‐4, (triphenylphosphine)AuCl, reference compound] | 19 | 50% and > 50% | 78% and > 50% | –
7 | [Au+3].[Cl-].[Cl-].[Cl-].[Cl-].[H+] [Au‐5, chloroauric acid, reference compound] | 45 | 89% and > 50% | 72% and > 50% | –
8 | COc1ccc(C#[C][Au-][c]2n(C)c3ccccc3[n+]2C)cc1 [Au‐6] | 16 | – | – | –
9 | Cn1cc(-c2ccccc2)n(C)[c]1=[Au][Cl] [Au‐14] | 17 | 51% | 23% | –
10 | CC(C)n1cc(-c2ccccc2)n(C(C)C)[c]1=[Au][Cl] [Au‐16] | 10 | 57% | 41% | –
11 | [Cl][Au-][c]1n(Cc2ccccc2)cc(-c2ccccc2)[n+]1Cc1ccccc1 [Au‐17] | 9 | -3% | 13% | activity against SARS‐CoV PL^pro (in words) (SARS‐CoV PL^pro): inactive; activity against SARS‐CoV‐2 PL^pro (in words) (SARS‐CoV‐2 PL^pro): inactive
12 | CC[n+]1[c-]n(CC2(c3ccc(Cl)cc3Cl)OCC(COc3ccc(N4CCN(C(C)=O)CC4)cc3)O2)cc1.[Au+].[Cl-] (stereo not drawn) [Au‐19] | 16 | 94% and > 80% | 2% | –
13 | Cn1[c]([Au-][c]2n(C)c3ccccc3[n+]2C)[n+](C)c2ccccc21.[I-] [Au‐21] | 22 | 11% | 10% | –
14 | CC(C)n1[c]([Au-][c]2n(C(C)C)c3ccccc3[n+]2C(C)C)[n+](C(C)C)c2ccccc21.[Br-] [Au‐22] | 23 | 39% | 7% | –
15 | CCn1cc(-c2ccccc2)[n+](CC)[c]1[Au-][c]1n(CC)cc(-c2ccccc2)[n+]1CC.[I-] [Au‐23] | 23 | 25% | -10% | –
16 | Cn1cc(-c2ccccc2)[n+](C)[c]1[Au-][c]1n(C)cc(-c2ccccc2)[n+]1C.[I-] [Au‐24] | 18 | 12% | -17% | –
17 | CC(C)n1cc(-c2ccccc2)[n+](C(C)C)[c]1[Au-][c]1n(C(C)C)c(-c2ccccc2)c[n+]1C(C)C.[I-] [Au‐29] | 8 | 24% | 4% | –
18 | CCN(CC)C(=S)SSC(=S)N(CC)CC [DS, disulfiram, reference compound] | – | – | – | inhibition at 10 µM (SARS‐CoV PL^pro; read-out: inhibition of SARS-CoV PLpro): 87%; inhibition at 1 µM (SARS‐CoV‐2 PL^pro; read-out: inhibition of SARS-CoV-2 PLpro): 73%
19 | Cc1cn(C/C=C/[c-]2cccc2)c(=O)[nH]c1=O.Cc1cn(C/C=C/[c-]2cccc2)c(=O)[nH]c1=O.[Fe+2] [Fe‐12] | 28 | -4% | -8% | –
20 | C[CH2][Hg][S]c1ccccc1C(=O)[O-].[Na+] [Hg‐1, thiomersal, reference compound] | 7 | -63% | 9% | –
21 | C1=CCCC=CCC1.CCn1[c-][n+](CC)c(-c2ccccc2)c1.[Cl-].[Rh+] [Rh‐1] | 0 | 67% | -4% | –

Row | Molecule | inhibition of the S/ACE2 interaction [1] [%] | inhibition of SARS-CoV PLpro (SARS‐CoV PL^pro) | inhibition of SARS-CoV-2 PLpro (SARS‐CoV‐2 PL^pro) | further results
22 | C1=CCCC=CCC1.CCn1[c-][n+](CC)c(-c2ccccc2)c1.[Br-].[Rh+] [Rh‐2] | 1 | 67% | 17% | –
23 | C1=CCCC=CCC1.CCn1[c-][n+](CC)c(-c2ccccc2)c1.[I-].[Rh+] [Rh‐3] | 0 | 63% | 15% | –
24 | C1=CCCC=CCC1.CCn1[c-][n+](CC)c(-c2ccc(F)cc2)c1.[Cl-].[Rh+] [Rh‐4] | 6 | 72% | 17% | –
25 | C1=CCCC=CCC1.CCn1[c-][n+](CC)c(-c2ccc(F)cc2)c1.[Br-].[Rh+] [Rh‐5] | 5 | 71% | 19% | –
26 | C1=CCCC=CCC1.CCn1[c-][n+](CC)c(-c2ccc(F)cc2)c1.[I-].[Rh+] [Rh‐6] | 22 | 70% | 19% | –
27 | C1=CCCC=CCC1.Cn1[c-][n+](C)c(-c2ccccc2)c1.[Cl-].[Rh+] [Rh‐8] | 12 | 93% | 35% | –
28 | C1=CCCC=CCC1.Cn1[c-][n+](C)c(-c2ccccc2)c1.[Br-].[Rh+] [Rh‐9] | 17 | 94% | 50% | IC50 (SARS‐CoV PL^pro): 6.7 ± 2.4 µM; IC50 SARS‐CoV PL^pro (SARS‐CoV PL^pro): low micromolar range; IC50 (SARS‐CoV‐2 PL^pro): 2.2 ± 1 µM; IC50 SARS‐CoV‐2 PL^pro (SARS‐CoV‐2 PL^pro): low micromolar range
29 | C1=CCCC=CCC1.Cn1[c-][n+](C)c(-c2ccc(F)cc2)c1.[Cl-].[Rh+] [Rh‐10] | 14 | 90% | 45% | –
30 | C1=CCCC=CCC1.Cn1[c-][n+](C)c(-c2ccc(F)cc2)c1.[Br-].[Rh+] [Rh‐11] | 14 | 91% | 48% | –
31 | Cc1ccc(C(C)C)cc1.Cc1ccc2c(c1)[n+](Cc1ccccc1)[c-]n2Cc1ccccc1.[Br-].[Br-].[Ru+2] [Ru‐2] | 0 | 20% | 5% | –
32 | Cc1ccc(C(C)C)cc1.[Cl-].[Cl-].[Ru+2].[c-]1n(Cc2ccccc2)cc[n+]1Cc1ccccc1 [Ru‐9] | 2 | 12% | 10% | –
33 | Cc1cn(CC=C[c-]2cccc2)c(=O)[nH]c1=O.[Ru+2].c1cc[cH-]c1 [Ru‐17] | 26 | 3% | -17% | –
34 | [Cl][Ti]([Cl])([Cl])[Cl] [Ti‐2, titanium(IV) tetrachloride, reference compound] | 0 | -7% | -3% | activity against the S/ACE2 interaction (in words) [1]: inactive; activity against SARS‐CoV PL^pro (in words) (SARS‐CoV PL^pro): inactive; activity against SARS‐CoV‐2 PL^pro (in words) (SARS‐CoV‐2 PL^pro): inactive
35 | ((NH2)3C)4[(BrC6H4As)2Mo6O24] ⋅ 2H2O [POM‐9] | 7 | 13% | 7% | –
36 | ((NH2)3C)4[(N3C6H4As)2Mo6O24] [POM‐10] | 6 | 7% | 4% | –
37 | Cs3K[(HO2CC6H4CH2P)2Mo5O21] ⋅ 5H2O [POM‐8] | 9 | 5% | 7% | –
38 | K6H2[CoW11TiO40] ⋅ 12H2O [POM‐4] | 82 | 44% | 7% | activity against SARS‐CoV PL^pro (in words) (SARS‐CoV PL^pro): active only against the enzyme from SARS‐CoV
39 | K7[Ti2PW10O40] ⋅ 6H2O [POM‐3] | 68 | 63% | 15% | –
40 | Na6[TeW6O24] ⋅ 22H2O [POM‐5] | – | 49% | 69% | concentration up to which no significant cytotoxic effects / tolerated well (Caco‐2 cells): ≥ 200 µM; concentration up to which no significant cytotoxic effects / tolerated well (CaLu‐3 cells): ≥ 200 µM
41 | Na12[PbO8Pd12 (PO4)8] ⋅ 38H2O [POM‐1] | 52 | 100% | 68% | concentration up to which no significant cytotoxic effects / tolerated well (Caco‐2 cells): ≥ 200 µM; concentration up to which no significant cytotoxic effects / tolerated well (CaLu‐3 cells): ≥ 200 µM
